From patent US9475775B2, “Benzazepine dicarboxamide compounds” (Hoffmann-La Roche Inc., priority 2015, dated 2016) come the findings set out here.

For assay [1], the target named is human TLR8 (Homo sapiens (Human), UniProt Q9NR97). In words: HEK-Blue human TLR8 cells, NF-κB SEAP reporter assay. It is filed as cell-based. Particulars: stimulation for 20 hours. An excerpt:
(§1) For TLR8 and TLR7 activity testing, HEK-Blue human TLR8 or TLR7 cells (Invivogen, San Diego, Calif., USA) are used, respectively. These cells are designed for studying the stimulation of human TLR8 or TLR7 by monitoring the activation of NF-κB. A SEAP (secreted embryonic alkaline phosphatase) reporter gene is placed under the control of the IFN-b minimal promoter fused to five NF-κB and AP-1-binding sites. Therefore the reporter expression is regulated by the NF-κB promoter upon stimulation of human TLR8 or TLR7 for 20 hours. The cell culture supernatant SEAP reporter activity was determined using Quanti Blue kit (Invivogen, San Diego, Ca, USA) at a wavelength of 640 nm, a detection medium that turns purple/blue in the presence of alkaline phosphatase. EC50 values were determined using Activity Base analysis (ID Business Solution, Limited).
For orientation: Reporter assays use an easily measured gene product as a stand-in for the process of interest.

Assay [2] addresses human TLR7 (Homo sapiens (Human), UniProt Q9NYK1). In words: HEK-Blue human TLR7 cells, NF-κB SEAP reporter assay. It is filed as cell-based. Particulars: stimulation for 20 hours.
From the text: as §1

Each structure is given as a SMILES string.

Sequence of human TLR8 (Q9NR97 27-1041): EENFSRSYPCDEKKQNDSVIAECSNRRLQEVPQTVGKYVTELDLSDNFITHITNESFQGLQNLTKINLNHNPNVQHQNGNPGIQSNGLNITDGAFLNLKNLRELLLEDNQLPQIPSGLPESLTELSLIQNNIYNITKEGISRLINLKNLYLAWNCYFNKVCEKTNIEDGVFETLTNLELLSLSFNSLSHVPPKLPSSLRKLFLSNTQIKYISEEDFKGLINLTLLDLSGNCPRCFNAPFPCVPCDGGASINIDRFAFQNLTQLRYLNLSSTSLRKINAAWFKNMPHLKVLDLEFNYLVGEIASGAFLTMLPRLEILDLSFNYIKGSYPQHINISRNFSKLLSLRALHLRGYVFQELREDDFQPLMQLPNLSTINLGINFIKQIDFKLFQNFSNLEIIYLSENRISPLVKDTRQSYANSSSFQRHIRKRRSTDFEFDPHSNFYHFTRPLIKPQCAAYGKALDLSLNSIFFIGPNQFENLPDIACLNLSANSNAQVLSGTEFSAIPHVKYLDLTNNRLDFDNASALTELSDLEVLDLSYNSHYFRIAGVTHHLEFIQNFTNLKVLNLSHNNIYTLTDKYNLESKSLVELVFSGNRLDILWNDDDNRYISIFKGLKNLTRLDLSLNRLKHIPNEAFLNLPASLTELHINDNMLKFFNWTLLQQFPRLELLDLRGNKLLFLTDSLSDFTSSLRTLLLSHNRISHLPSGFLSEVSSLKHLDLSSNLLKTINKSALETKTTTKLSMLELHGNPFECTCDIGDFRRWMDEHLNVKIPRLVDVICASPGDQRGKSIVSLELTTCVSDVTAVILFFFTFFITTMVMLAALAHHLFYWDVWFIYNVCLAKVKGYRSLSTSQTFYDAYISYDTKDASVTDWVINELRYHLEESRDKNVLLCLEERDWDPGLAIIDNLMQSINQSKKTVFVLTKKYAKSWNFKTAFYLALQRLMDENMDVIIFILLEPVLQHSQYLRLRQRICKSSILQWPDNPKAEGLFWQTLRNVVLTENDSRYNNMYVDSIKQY
Sequence of human TLR7 (Q9NYK1 27-1049): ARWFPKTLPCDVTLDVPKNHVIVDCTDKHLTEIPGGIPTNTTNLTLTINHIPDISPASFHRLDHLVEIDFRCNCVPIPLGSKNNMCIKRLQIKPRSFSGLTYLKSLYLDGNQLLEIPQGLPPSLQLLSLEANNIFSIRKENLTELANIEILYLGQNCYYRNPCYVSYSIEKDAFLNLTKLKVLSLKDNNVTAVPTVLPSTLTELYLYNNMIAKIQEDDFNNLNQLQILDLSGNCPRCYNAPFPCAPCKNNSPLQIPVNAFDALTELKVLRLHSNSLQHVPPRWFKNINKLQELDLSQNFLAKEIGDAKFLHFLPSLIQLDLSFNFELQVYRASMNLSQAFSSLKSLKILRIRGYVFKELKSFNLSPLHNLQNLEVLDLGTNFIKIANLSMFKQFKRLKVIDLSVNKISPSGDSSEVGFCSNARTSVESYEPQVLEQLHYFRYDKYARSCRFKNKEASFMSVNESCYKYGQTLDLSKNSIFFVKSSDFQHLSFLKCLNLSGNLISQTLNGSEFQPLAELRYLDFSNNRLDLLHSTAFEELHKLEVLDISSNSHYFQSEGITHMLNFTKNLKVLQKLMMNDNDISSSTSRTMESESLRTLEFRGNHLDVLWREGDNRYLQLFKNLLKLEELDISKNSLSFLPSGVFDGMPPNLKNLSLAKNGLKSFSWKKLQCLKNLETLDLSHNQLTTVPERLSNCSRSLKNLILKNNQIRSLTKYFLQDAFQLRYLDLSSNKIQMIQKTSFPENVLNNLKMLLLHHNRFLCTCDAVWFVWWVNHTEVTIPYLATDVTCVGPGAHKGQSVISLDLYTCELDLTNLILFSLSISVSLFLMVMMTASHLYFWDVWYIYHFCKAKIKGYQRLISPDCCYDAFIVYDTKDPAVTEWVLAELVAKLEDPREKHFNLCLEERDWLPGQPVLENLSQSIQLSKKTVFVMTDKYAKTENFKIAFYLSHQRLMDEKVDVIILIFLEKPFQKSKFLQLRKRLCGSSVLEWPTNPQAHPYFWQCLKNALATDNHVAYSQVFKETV

Broadly, the EC50 is the concentration needed to bring the measured effect to its halfway point. The low end stands for a more potent agent, the high end for a less potent agent. For the molecule `CCCN(CCC)C(=O)C1=Cc2ccc(C(=O)Nc3ccc(C)cc3)cc2N=C(N)C1` [Example 28, 2-Amino-N4,N4-dipropyl-N8-(p-tolyl)-3H-1-benzazepine-4,8-dicarboxamide], the results for the EC50 in assay [1] and in assay [2] were 1 nM and over 100000 nM, respectively.

As for `CCCN(CCC)C(=O)C1=Cc2ccc(C(=O)Nc3cccc(CC)c3)cc2N=C(N)C1` [Example 29, 2-Amino-N8-(3-ethylphenyl)-N4,N4-dipropyl-3H-1-benzazepine-4,8-dicarboxamide], the EC50 is 1 nM in assay [1] and over 100000 nM in assay [2].

Regarding `CCCN(CCC)C(=O)C1=Cc2ccc(C(=O)Nc3cccc(OC)c3)cc2N=C(N)C1` [Example 30, 2-Amino-N8-(3-methoxyphenyl)-N4,N4-dipropyl-3H-1-benzazepine-4,8-dicarboxamide], the EC50 in assay [1] was 2 nM; in assay [2] it was over 100000 nM.

As for `CCCN(CCC)C(=O)C1=Cc2ccc(C(=O)Nc3cccc(C(F)(F)F)c3)cc2N=C(N)C1` [Example 31, 2-Amino-N4,N4-dipropyl-N8-[3-(trifluoromethyl)phenyl]-3H-1-benzazepine-4,8-dicarboxamide], the EC50 in assay [1] was 5 nM; in assay [2], over 100000 nM.

As for `CCCN(CCC)C(=O)C1=Cc2ccc(C(=O)Nc3cccc(Cl)c3)cc2N=C(N)C1` [Example 32, 2-Amino-N8-(3-chlorophenyl)-N4,N4-dipropyl-3H-1-benzazepine-4,8-dicarboxamide], the values for the EC50 in assay [1] and in assay [2] were 2 nM and over 100000 nM, respectively.

Regarding `CCCN(CCC)C(=O)C1=Cc2ccc(C(=O)Nc3cncc(CN)c3)cc2N=C(N)C1` [Example 33, 2-Amino-N8-[5-(aminomethyl)-3-pyridyl]-N4,N4-dipropyl-3H-1-benzazepine-4,8-dicarboxamide], the EC50 in assay [1] was 2 nM; in assay [2], over 100000 nM.

Take `CCCN(CCC)C(=O)C1=Cc2ccc(C(=O)Nc3ccnnc3)cc2N=C(N)C1` [Example 34, 2-Amino-N4,N4-dipropyl-N8-pyridazin-4-yl-3H-1-benzazepine-4,8-dicarboxamide]: the values for the EC50 in assay [1] and in assay [2] were 2 nM and over 100000 nM, respectively.

Turning to `CCCN(CCC)C(=O)C1=Cc2ccc(C(=O)Nc3ccc(OCC)nc3)cc2N=C(N)C1` [Example 35, 2-Amino-N8-(6-ethoxy-3-pyridyl)-N4,N4-dipropyl-3H-1-benzazepine-4,8-dicarboxamide], the EC50 in assay [1] is 1 nM; in assay [2], over 100000 nM.

With `CCCN(CCC)C(=O)C1=Cc2ccc(C(=O)Nc3cccc(CN)c3)cc2N=C(N)C1` [Example 36, 2-Amino-N8-[3-(aminomethyl)phenyl]-N4,N4-dipropyl-3H-1-benzazepine-4,8-dicarboxamide], the EC50 is 31 nM in assay [1] and over 100000 nM in assay [2].

As to `CCCN(CCC)C(=O)C1=Cc2ccc(C(=O)Nc3ccn(C)n3)cc2N=C(N)C1` [Example 37, 2-Amino-N8-(1-methylpyrazol-3-yl)-N4,N4-dipropyl-3H-1-benzazepine-4,8-dicarboxamide], the EC50 amounted to 23 nM in assay [1] and 38000 nM in assay [2].

`CCCN(CCC)C(=O)C1=Cc2ccc(C(=O)Nc3ncco3)cc2N=C(N)C1` [Example 38, 2-Amino-N8-oxazol-2-yl-N4,N4-dipropyl-3H-1-benzazepine-4,8-dicarboxamide]: the values for the concentration giving a half-maximal response (EC50) in assay [1] and in assay [2] were 29 nM and 45000 nM, respectively.

Regarding `CCCN(CCCO)C(=O)C1=Cc2ccc(C(=O)Nc3cccnc3)cc2N=C(N)C1` [Example 39, 2-Amino-N4-(3-hydroxypropyl)-N4-propyl-N8-(3-pyridyl)-3H-1-benzazepine-4,8-dicarboxamide], the 50% effective concentration (EC50) is 29 nM in assay [1] and over 100000 nM in assay [2].

As to `CCCN(CCC)C(=O)C1=Cc2ccc(C(=O)Nc3cncc(OC)c3)cc2N=C(N)C1` [Example 40, 2-Amino-N8-(5-methoxy-3-pyridyl)-N4,N4-dipropyl-3H-1-benzazepine-4,8-dicarboxamide], the EC50 in assay [1] is 1 nM; in assay [2], over 100000 nM.

For the molecule `C#CCN(CCC)C(=O)C1=Cc2ccc(C(=O)Nc3cccc(C)c3)cc2N=C(N)C1` [Example 41, 2-Amino-N8-(m-tolyl)-N4-propyl-N4-prop-2-ynyl-3H-1-benzazepine-4,8-dicarboxamide], the figures for the EC50 in assay [1] and in assay [2] were 6 nM and over 100000 nM, respectively.

Take `CCCCN(CCCC)C(=O)C1=Cc2ccc(C(=O)Nc3cccc(C)c3)cc2N=C(N)C1` [Example 42, 2-Amino-N4,N4-dibutyl-N8-(m-tolyl)-3H-1-benzazepine-4,8-dicarboxamide]: the EC50 in assay [1] is 17 nM; in assay [2], over 100000 nM.

For the molecule `CCCN(CCC)C(=O)C1=Cc2ccc(C(=O)Nc3cc(C)cc(CN)c3)cc2N=C(N)C1` [Example 43, 2-Amino-N8-[3-(aminomethyl)-5-methyl-phenyl]-N4,N4-dipropyl-3H-1-benzazepine-4,8-dicarboxamide], the EC50 in assay [1] was found to be 15 nM; in assay [2] it was 61000 nM.

On to `CCCN(CCC)C(=O)C1=Cc2ccc(C(=O)Nc3cncc(OCC)c3)cc2N=C(N)C1` [Example 44, 2-Amino-N8-(5-ethoxy-3-pyridyl)-N4,N4-dipropyl-3H-1-benzazepine-4,8-dicarboxamide], for which the values for the EC50 in assay [1] and in assay [2] were 1 nM and 12000 nM, respectively.

For `CCCN(CCC)C(=O)C1=Cc2ccc(C(=O)Nc3cccc(OCCOCCN)c3)cc2N=C(N)C1` [Example 45, 2-Amino-N8-[3-[2-(2-aminoethoxy)ethoxy]phenyl]-N4,N4-dipropyl-3H-1-benzazepine-4,8-dicarboxamide], the EC50 is 26 nM in assay [1] and over 100000 nM in assay [2].

In the case of `CCCN(CCC)C(=O)C1=Cc2ccc(C(=O)Nc3cncc(OCCCCCN)c3)cc2N=C(N)C1` [Example 46, 2-Amino-N8-[5-(5-aminopentoxy)-3-pyridyl]-N4,N4-dipropyl-3H-1-benzazepine-4,8-dicarboxamide], the results for the EC50 in assay [1] and in assay [2] were 10 nM and over 100000 nM, respectively.

As for `CCCN(CCC)C(=O)C1=Cc2ccc(C(=O)Nc3cccc(COCCOCCN)c3)cc2N=C(N)C1` [Example 47, 2-Amino-N8-[3-[2-(2-aminoethoxy)ethoxymethyl]phenyl]-N4,N4-dipropyl-3H-1-benzazepine-4,8-dicarboxamide], the EC50 is 6 nM in assay [1] and over 100000 nM in assay [2].

In the case of `CCCN(CCC)C(=O)C1=Cc2ccc(C(=O)Nc3cncc(C#CCN)c3)cc2N=C(N)C1` [Example 48, 2-Amino-N8-[5-(3-aminoprop-1-ynyl)-3-pyridyl]-N4,N4-dipropyl-3H-1-benzazepine-4,8-dicarboxamide], the EC50 in assay [1] is 16 nM; in assay [2], over 100000 nM.

Regarding `CCCN(CCCOCCOCCN)C(=O)C1=Cc2ccc(C(=O)Nc3cccc(C)c3)cc2N=C(N)C1` [Example 49, 2-amino-N4-[3-[2-(2-aminoethoxy)ethoxy]propyl]-N8-(m-tolyl)-N4-propyl-3H-1-benzazepine-4,8-dicarboxamide], the values for the EC50 in assay [1] and in assay [2] were 31 nM and over 100000 nM, respectively.

`CCCN(CCC)C(=O)C1=Cc2ccc(C(=O)Nc3cncc(CCCN)c3)cc2N=C(N)C1` [Example 50, 2-Amino-N8-[5-(3-aminopropyl)-3-pyridyl]-N4,N4-dipropyl-3H-1-benzazepine-4,8-dicarboxamide]: the EC50 is 10 nM in assay [1] and over 100000 nM in assay [2].

As for `CCCN(CCC(F)(F)F)C(=O)C1=Cc2ccc(C(=O)Nc3cccc(C)c3)cc2N=C(N)C1` [Example 51, 2-Amino-N8-(m-tolyl)-N4-propyl-N4-(3,3,3-trifluoropropyl)-3H-1-benzazepine-4,8-dicarboxamide], the EC50 came to 2 nM in assay [1] and 22000 nM in assay [2].

As to `CCCN(CCC)C(=O)C1=Cc2ccc(C(=O)Nc3cncc(/C=C\CN)c3)cc2N=C(N)C1` [Example 52, 2-Amino-N8-[5-[(Z)-3-aminoprop-1-enyl]-3-pyridyl]-N4,N4-dipropyl-3H-1-benzazepine-4,8-dicarboxamide], the EC50 in assay [1] was 6 nM; in assay [2], over 100000 nM.

For `CCCN(CC1CC1)C(=O)C1=Cc2ccc(C(=O)Nc3cccc(C)c3)cc2N=C(N)C1` [Example 53, 2-Amino-N4-(cyclopropylmethyl)-N8-(m-tolyl)-N4-propyl-3H-1-benzazepine-4,8-dicarboxamide], the EC50 in assay [1] came to 2 nM; in assay [2], 20000 nM.

For `CCCN(CCC)C(=O)C1=Cc2ccc(C(=O)Nc3cccc(CCN)c3)cc2N=C(N)C1` [Example 54, 2-Amino-N8-[3-(2-aminoethyl)phenyl]-N4,N4-dipropyl-3H-1-benzazepine-4,8-dicarboxamide], the values for the EC50 in assay [1] and in assay [2] were 3 nM and over 100000 nM, respectively.

For `CCCN(CC(C)C)C(=O)C1=Cc2ccc(C(=O)Nc3cccc(C)c3)cc2N=C(N)C1` [Example 55, 2-Amino-N4-isobutyl-N8-(m-tolyl)-N4-propyl-3H-1-benzazepine-4,8-dicarboxamide], the figures for the EC50 in assay [1] and in assay [2] were 2 nM and over 100000 nM, respectively.

For the molecule `CCCN(CCCOCCCN)C(=O)C1=Cc2ccc(C(=O)Nc3cccc(C)c3)cc2N=C(N)C1` [Example 56, 2-Amino-N4-[3-(3-aminopropoxy)propyl]-N8-(m-tolyl)-N4-propyl-3H-1-benzazepine-4,8-dicarboxamide], the EC50 was 10 nM in assay [1] and over 100000 nM in assay [2].

With `CCCN(CCC)C(=O)C1=Cc2ccc(C(=O)Nc3cccc(CCCCCN)c3)cc2N=C(N)C1` [Example 57, 2-Amino-N8-[3-(5-aminopentyl)phenyl]-N4,N4-dipropyl-3H-1-benzazepine-4,8-dicarboxamide], the values for the EC50 in assay [1] and in assay [2] were 25 nM and over 100000 nM, respectively.

For `CCCN(CCC)C(=O)C1=Cc2ccc(C(=O)Nc3ccc(CCCCCN)cc3)cc2N=C(N)C1` [Example 58, 2-Amino-N8-[4-(5-aminopentyl)phenyl]-N4,N4-dipropyl-3H-1-benzazepine-4,8-dicarboxamide], the results for the EC50 in assay [1] and in assay [2] were 15 nM and over 100000 nM, respectively.
